Laboratory results taken from patent US12630497B2, “Compound having malate dehydrogenase inhibitory activity and pharmaceutical composition for preventing or treating cancer comprising same as active ingredient” (DONGGUK UNIVERSITY INDUSTRY-ACADEMIC COOPERATION FOUNDATION, priority 2017, dated 2026).

Experiments:
[1] = system: Caki-1; test: Cell proliferation inhibition (methylene blue); format: cell-based; details: Homo sapiens; Caki-1 kidney and renal cancer cell line, 72 hours; read-out: Viability GI50
Text: (§1) Cell lines used in the experiment are lung cancer cell lines A549 and H1703, colorectal cancer cell lines HCT116 and HT29, liver cancer cell lines Hep3B and HepG2, gastric or stomach cancer cell lines NUGC-3 and AGS, kidney and renal cancer cell lines 786-O and Caki-1, breast cancer cell lines MCF-7 and MDA-MB-231, a prostate cancer cell line PC3, a pancreatic cancer cell line MIA-PaCa-2, a cervical cancer cell line HeLa, and normal cell lines WI-38 and CCD-32Lu. Specifically, each of the cell lines was suspended in DMEM containing 5% FBS, transferred to a 96-well plate (3×10^3 cells/well), and cultured in a 37 □ cell incubator maintaining 5% carbon dioxide for 24 hours. […] Afterward, a change in the concentration of methylene blue extracted with a 0.5% aqueous hydrochloric acid solution was analyzed by measuring absorbance at 600 nm.

[2] = system: AGS; test: Cell proliferation inhibition (methylene blue); format: cell-based; details: Homo sapiens; AGS gastric or stomach cancer cell line, 72 hours; read-out: Viability GI50
Text: as §1

[3] = system: H1703; test: Cell proliferation inhibition (methylene blue); format: cell-based; details: Homo sapiens, NCI-H1703; H1703 lung cancer cell line, 72 hours; read-out: Viability GI50
Text: as §1

[4] = system: HT29; test: Cell proliferation inhibition (methylene blue); format: cell-based; details: Homo sapiens, HT-29; HT29 colorectal cancer cell line, 72 hours; read-out: Viability GI50
Text: as §1

[5] = system: MCF-7; test: Cell proliferation inhibition (methylene blue); format: cell-based; details: Homo sapiens, MCF7; MCF-7 breast cancer cell line, 72 hours; read-out: Viability GI50
Text: as §1

[6] = system: MDA-MB-231; test: Cell proliferation inhibition (methylene blue); format: cell-based; details: Homo sapiens; MDA-MB-231 breast cancer cell line, 72 hours; read-out: Viability GI50
Text: as §1

[7] = system: HepG2; test: Cell proliferation inhibition (methylene blue); format: cell-based
Text: as §1

[8] = system: WI-38; test: Cell proliferation inhibition (methylene blue); format: cell-based
Text: as §1

[9] = system: Hep3B; test: Cell proliferation inhibition (methylene blue); format: cell-based; details: Homo sapiens; Hep3B liver cancer cell line, 72 hours; read-out: Viability GI50
Text: as §1

[10] = system: MIA PaCa-2; test: Cell proliferation inhibition (methylene blue); format: cell-based; details: Homo sapiens; MIA PaCa-2 pancreatic cancer cell line, 72 hours; read-out: Viability GI50
Text: as §1

[11] = system: A549; test: Cell proliferation inhibition (methylene blue); format: cell-based
Text: as §1

[12] = system: HeLa; test: Cell proliferation inhibition (methylene blue); format: cell-based; details: Homo sapiens; HeLa cervical cancer cell line, 72 hours; read-out: Viability GI50
Text: as §1

[13] = system: NUGC-3; test: Cell proliferation inhibition (methylene blue); format: cell-based; details: Homo sapiens; NUGC-3 gastric or stomach cancer cell line, 72 hours; read-out: Viability GI50
Text: as §1

[14] = system: 786-O; test: Cell proliferation inhibition (methylene blue); format: cell-based; details: Homo sapiens, 786-0; 786-O kidney and renal cancer cell line, 72 hours; read-out: Viability GI50
Text: as §1

[15] = system: HCT116; test: Cell proliferation inhibition (methylene blue); format: cell-based
Text: as §1

[16] = system: CCD-32Lu; test: Cell proliferation inhibition (methylene blue); format: cell-based
Text: as §1

[17] = system: PC3; test: Cell proliferation inhibition (methylene blue); format: cell-based; details: Homo sapiens, PC-3; PC3 prostate cancer cell line, 72 hours; read-out: Viability GI50
Text: as §1

[18] = molecular target: T1, MDH1 (Homo sapiens, UniProt P40925); test: MDH1 enzyme kinetics with varied NADH (Lineweaver-Buck plot)
T1 sequence (P40925 1-334): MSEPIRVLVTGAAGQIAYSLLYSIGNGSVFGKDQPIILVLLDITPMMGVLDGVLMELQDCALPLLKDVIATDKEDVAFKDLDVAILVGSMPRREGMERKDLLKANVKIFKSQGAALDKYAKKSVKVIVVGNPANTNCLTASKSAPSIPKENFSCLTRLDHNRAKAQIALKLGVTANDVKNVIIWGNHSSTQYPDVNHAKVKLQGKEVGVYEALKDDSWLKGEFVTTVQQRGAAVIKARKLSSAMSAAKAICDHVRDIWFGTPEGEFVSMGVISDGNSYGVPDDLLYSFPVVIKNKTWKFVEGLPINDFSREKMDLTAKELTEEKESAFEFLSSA

[19] = molecular target: T1, MDH1; test: MDH1 inhibitory activity (in vitro, NADH oxidation, absorbance 340 nm); format: biochemical; parameters: purchased Biovision; details: 0.25 nM MDH1 recombinant protein, 200 μM oxaloacetate, 30 minutes
Procedure: The inhibitory activity of the prepared compounds against MDH1 recombinant protein and the MDH2 recombinant proteins prepared in each of Experimental Examples 1-1, 1-2, 1-3 and 1-4 was measured. More specifically, 0.25 nM MDH1 recombinant protein (Biovision) or MDH2 recombinant protein was added to 200 μM oxaloacetate, nicotinamide adenine dinucleotide (NADH), the compound prepared in Example 1 and an MDH assay buffer (100 mM potassium phosphate, pH 7.4) to allow a reaction for 30 minutes. Afterward, a change in NADH concentration in the solution due to NADH oxidation (NAD^+) by an MDH1 or MDH2 enzyme was analyzed by measuring absorbance at 340 nm.

- GI50 [2]: 10 to 20 µM
- GI50 [3]: 5 to 10 µM
- GI50 [4]: 5 to 10 µM
- GI50 [5]: 10 to 20 µM
- GI50 [6]: 10 to 20 µM
- GI50 ([7]; Homo sapiens, HepG2 liver cancer cell line, 72 hours, read-out: Viability GI50): 1000 to 5000 nM
- GI50 [9]: 10 to 20 µM
- GI50 [10]: 5 to 10 µM
- GI50 ([11]; Homo sapiens, A549 lung cancer cell line, 72 hours, read-out: Viability GI50): 1000 to 5000 nM
- GI50 [12]: 10 to 20 µM
- GI50 [14]: 10 to 20 µM
- GI50 ([15]; Homo sapiens, HCT-116, HCT116 colorectal cancer cell line, 72 hours, read-out: Viability GI50): 1000 to 5000 nM
- GI50 [17]: 10 to 20 µM
- MDH inhibiting mechanism ([18]; NADH 60-300 μM, 600 μM oxaloacetate): competitively inhibiting MDH
- maximum velocity (Vmax) ([18]; as NADH concentration changes): does not change
- IC50 [19]: 1000 to 5000 nM
Structure (SMILES): COC(=O)c1cccc(NC(=O)CCOc2ccc(C(C)(C)CC(C)(C)C)cc2)c1 [Compound 9-2, Methyl 3-(3-(4-(2,4,4-trimethylpentan-2-yl)phenoxy)propanamido)benzoate]
- GI50 [1]: 10 to 20 µM
- inhibitory effect on proliferation ([7]; HepG2 cells): strong inhibitory effect
- GI50 ([8]; Homo sapiens, WI-38 normal cell line, 72 hours, read-out: Viability GI50): > 20 µM
- effect on proliferation of normal cell lines ([8]; WI-38, within concentration range in which proliferation of cancer cells is inhibited): no effect on the proliferation of normal cell lines
- inhibitory effect on proliferation ([11]; A549 cells): strong inhibitory effect
- GI50 [13]: 5 to 10 µM
- inhibitory effect on proliferation ([15]; HCT116 cells): strong inhibitory effect
- GI50 ([16]; CCD-32Lu normal cell line, 72 hours, read-out: Viability GI50): > 20 µM
- effect on proliferation of normal cell lines ([16]; CCD-32Lu, within concentration range in which proliferation of cancer cells is inhibited): no effect on the proliferation of normal cell lines
